One series in a line: ABTS+ quenching ability. The series is classed as physicochemical. As to conditions: at 100 μg/mL; absorbance at 734 nm; mean ± standard error. As to the method:
The ABTS^+ quenching ability was determined following the same procedures described by Vásquez et al.. The same system without the sample was the control, and glutathione (0.1 mg/mL) was the comparison. The percentage of reduction in absorbance at 734 nm was defined as the ABTS^+ scavenging ability of samples.

A short description of series [1]: Hydroxyl radical scavenging activity (β-deoxyribose oxidation method). The series is classed as physicochemical. The conditions noted are these: at 100 μg/mL. As to the method:
(§1) As described by Wang et al. and Vásquez et al., the hydroxyl (·OH) and superoxide ( O2−· ) radicals’ scavenging activity was measured using the β-deoxyribose oxidation and pyrogallol auto-oxidation methods, respectively. The comparison was conducted when the samples were replaced by glutathione (0.1 mg/mL).

Series [2] in a line: Superoxide radical scavenging activity (pyrogallol auto-oxidation method). It counts as physicochemical. As to conditions: at 100 μg/mL. Here is the method:
as §1

A short description of series [3]: Reducing power (potassium ferricyanide method). As to conditions: at 100 μg/mL; absorbance at 700 nm. The series is classed as physicochemical. From the text:
The potassium ferricyanide method was employed to determine the reducing power of the SAGH peptides at the same conditions reported by Wang et al., where the absorbance at 700 nm represented the reducing power.

The nature of series [4]: Gastrointestinal stability of peptide–ferrous chelate (ferrous solubility in simulated digestion). The series is classed as in vitro ADME. Here is the method:
Next, the intestinal digestive fluid was added, and digestion was continued at pH 6.8 for 2 h in the EDZF-C002 thermostatic vibrator ([…], 175 rpm).

Series [5] concerns the target T1, ACE (from rabbit lungs) (Oryctolagus cuniculus, UniProt P12822).
T1 construct: ACE (0.1 U, from rabbit lungs, purity > 99.7%, CAS: 9015-82-1) was obtained from Sigma-Aldrich; purchased Sigma-Aldrich (St. Louis, MO, USA); host or cells: rabbit lung tissue
T1 sequence (P12822 34-1310): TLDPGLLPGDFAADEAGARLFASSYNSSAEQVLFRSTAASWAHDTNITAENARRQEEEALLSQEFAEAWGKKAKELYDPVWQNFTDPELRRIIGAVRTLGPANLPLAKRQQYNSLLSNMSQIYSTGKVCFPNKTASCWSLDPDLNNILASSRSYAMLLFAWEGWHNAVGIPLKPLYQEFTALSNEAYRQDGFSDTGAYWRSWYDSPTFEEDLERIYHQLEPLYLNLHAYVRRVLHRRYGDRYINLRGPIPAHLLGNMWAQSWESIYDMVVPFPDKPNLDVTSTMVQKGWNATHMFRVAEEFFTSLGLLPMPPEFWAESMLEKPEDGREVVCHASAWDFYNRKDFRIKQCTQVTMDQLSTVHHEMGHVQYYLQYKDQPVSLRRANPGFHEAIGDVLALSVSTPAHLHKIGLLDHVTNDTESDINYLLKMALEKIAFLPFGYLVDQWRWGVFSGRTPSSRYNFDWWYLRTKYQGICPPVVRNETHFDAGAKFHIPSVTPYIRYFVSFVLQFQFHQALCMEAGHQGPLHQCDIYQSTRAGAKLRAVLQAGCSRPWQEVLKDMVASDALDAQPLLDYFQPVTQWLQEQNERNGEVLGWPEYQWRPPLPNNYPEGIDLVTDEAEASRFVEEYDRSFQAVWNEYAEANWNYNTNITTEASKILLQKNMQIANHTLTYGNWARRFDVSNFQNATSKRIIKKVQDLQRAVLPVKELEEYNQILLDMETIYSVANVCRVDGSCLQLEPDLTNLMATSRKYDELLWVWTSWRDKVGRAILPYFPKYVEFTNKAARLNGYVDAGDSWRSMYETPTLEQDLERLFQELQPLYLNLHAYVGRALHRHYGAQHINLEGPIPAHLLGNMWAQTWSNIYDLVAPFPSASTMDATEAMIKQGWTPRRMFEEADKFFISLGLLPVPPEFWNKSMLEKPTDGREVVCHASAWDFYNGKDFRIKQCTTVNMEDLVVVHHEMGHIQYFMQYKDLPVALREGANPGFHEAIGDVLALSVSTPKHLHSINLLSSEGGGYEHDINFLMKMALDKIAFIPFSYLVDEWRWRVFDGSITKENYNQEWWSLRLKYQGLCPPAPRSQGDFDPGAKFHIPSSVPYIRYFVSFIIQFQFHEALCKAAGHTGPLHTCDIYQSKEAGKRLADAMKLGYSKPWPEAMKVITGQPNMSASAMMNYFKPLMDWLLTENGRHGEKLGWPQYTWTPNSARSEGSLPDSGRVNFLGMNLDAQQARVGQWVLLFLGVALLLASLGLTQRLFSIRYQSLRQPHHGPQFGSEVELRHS
Further details: method as in 3 sources, ref 29 = [29]; doi:10.1111/j.1365-2621.2001.tb04614.x; 29. Nielsen P.M. Petersen D. Dambmann C. Improved method for determining food protein degree of hydrolysis J. Food Sci. 2001 66 642 646 10.1111/j.1365-2621.2001.tb04614.x ||| ref 43 = [43]; PMID 38470110; doi:10.1021/acs.jafc.4c00829; 43. Martineau-Côté D. Achouri A. Karboune S. L’Hocine L. Antioxidant and Angiotensin-Converting Enzyme Inhibitory Activity of Faba Bean-Derived Peptides After In Vitro Gastrointestinal Digestion: Insi ||| ref 10 = [10]; PMID 36493485; doi:10.1016/j.foodchem.2022.135082; 10. Fadimu G.J. Gan C.Y. Olalere Q.A. Farahnaky A. Gill H. Truong T. Novel antihypertensive peptides from lupin protein hydrolysate: An in-silico identification and molecular docking studies Food Chem. As to conditions: read-out: ACE inhibition IC50 (literature), cited from earlier work.

For series [6] the following is noted: assay not specified, cited from earlier work. The text has this: Alternatively, the guanidine of Arg, imidazolyl in His, the free hydroxyl group of Ser, the cyclic amino group of Pro, and the phenolic hydroxyl group of Tyr can quickly quench free radicals, showing excellent antioxidant ability. Moreover, the sulfhydryl group in Cys or Met can inhibit free radicals’ chain reaction by chelating metal ions, which are catalysts for oxidation reactions. Therefore, the residues, including Tyr, Pro, Val, and Met, were responsible for the antioxidant activity of […]. Furthermore, the repeated amino acid sequences “GGG” can enhance the antioxidant ...

The conditions of series [7]: cited from earlier work. The text has this: The ACE inhibition and antioxidant activities of […] were stable during gastrointestinal digestion (Figure 3A and Table 2), which is mainly ascribed to the Pro, Val, and Met residues. […] Therefore, the Pro and Val residues of […] were mainly responsible for its gastrointestinal stability. Peptides rich in Pro and br ...

The target of series [8] is T1, ACE (from rabbit lungs). Nature of the series: ACE inhibitory ability (hippuric acid method). The series is classed as biochemical. As to conditions: N = 3. The text has this: The hippuric acid method was used to measure the samples’ inhibitory ability towards ACE, following the same procedures as Zheng et al.. The absorbance at 228 nm was the hippuric acid content and represented ACE activity; therefore, the inhibitory ability of samples towards ACE was defined as the percentage of reduction in the absorption at 228 nm between the control and sample groups. Moreover, the ACE inhibitory kinetic of SAGH peptides was investigated by employing a Lineweaver–Burk plot with N-hippuryl-L-histidyl-L-leucine (HHL, 0.13–1.32 mmol/L) as the substrate.
(§2) As described by Wu et al., the simulative gastric digestive fluid consisted of sodium chloride (0.18 mol/L), ultrapure water (180 mL), and 0.40 mg/mL of pepsin. The simulation intestinal digestive juice was composed of NaHCO3, ([…]), bile salt (3 g/100 mL), pancreatin (0.35 mg/mL), and 180 mL of ultrapure water. The antihypertensive and antioxidant SAGH peptides (5 mg/mL, 60 mL) were first hydrolyzed using 150 mL of simulative gastric fluid at 37 °C and 140 rpm for 90 min. The mixture was adjusted to pH 7.0, and 180 mL of the simulative intestinal hydrolysis fluid was added and stirred at 37 °C for 2 h. After boiling for 6 min, the mixture was cooled with running water to room temperature. The ACE inhibition capacity and antioxidant ability of the treated SAGH peptides were detected and compared to those of the […] SAGH peptides.

The nature of series [9]: Gastrointestinal stability of SAGH peptide (simulated gastric and intestinal digestion). The conditions noted are these: peptide 5 mg/mL; simulated gastric fluid (pepsin 0.40 mg/mL) 37 °C, 140 rpm, 90 min, then pH 7.0 intestinal fluid (pancreatin 0.35 mg/mL, bile salt 3 g/100 mL) 37 °C 2 h; read-out activity. The series is classed as in vitro ADME. Here is the method:
as §2

Series [10] can be described thus: Ferrous ion binding capacity (o-phenanthroline method). It counts as physicochemical. As to conditions: decrease in ferrous concentration per sample concentration, mean ± standard error, at least three tests. As to the method: The ferrous ion binding capacity was determined using the o-phenanthroline method following the same procedures described by Xu et al.. By plugging the absorbance value into the equation of A = 0.3719C + 0.0002 [36], the ferrous ion concentration (C) can be calculated. The ferrous ion binding capacity (mg/g) was defined as the decrease in ferrous concentration of the reaction solution per sample concentration.

Where “and” joins values, the source holds several entries; their conditions need not be identical. Equal values may be shown once. Read-outs that look alike come from different tables or passages of the source. Where no end group is shown, it is not given here.

With `N[C@@H](CCC(=O)N[C@@H](CS)C(=O)NCC(=O)O)C(=O)O` [Glutathione, glutathione, reference compound], the “ABTS+ Scavenging Activity (%) Before Gastrointestinal Digestion” value in the series “ABTS+ quenching ability” is 79.25 ± 1.67 b %. In addition, the “·OH Scavenging Activity (%) Before Gastrointestinal Digestion” value in [1] is on record as 95.56 ± 1.38 a,b %. For the same molecule, the “Superoxide Radical Scavenging Ability (%) Before Gastrointestinal Digestion” value in series [2] came out at 90.52 ± 4.97 a %. The “Reducing Power Before Gastrointestinal Digestion” value in series [3] is 0.675 ± 0.019 a.

In the case of `[Cl][Fe][Cl]` [ferrous chloride, reference compound], in series [4] (0–90 min, simulated gastric fluid pH 1.9, 37 °C, 175 rpm, soluble ferrous by o-phenanthroline every 30 min, N = 3), the “ferrous solubility during gastric digestion” value was “relatively stable”. For the same molecule, in series [4] (91–240 min, intestinal digestive fluid pH 6.8, soluble ferrous by o-phenanthroline, p < 0.05), the “ferrous solubility during intestinal digestion” value is reported as “apparently decreased”.

By IC50 is commonly meant the concentration needed to halve the response being measured. Turning to GCHHY, the half-maximal inhibitory concentration (IC50) with ACE (from rabbit lungs) [5] (peptide from millet bran glutelin-2) is 147 µM.

Turning to “LPSYVN [literature antioxidant peptide from apricot]”, the “antioxidant activity (literature)” value in [6] (peptides from apricot) is “excellent antioxidant activity”.

In the case of “PIIAKMY [literature peptide from millet glutelin-2]”, the “gastrointestinal stability (literature)” value in series [7] (peptide from millet glutelin-2) was “good gastrointestinal stability”.

As to PMYGGGMV, the IC50 is 121 µM on ACE (from rabbit lungs) [8] (hippuric acid method, HHL substrate, absorbance at 228 nm, read-out: ACE inhibitory activity (IC50)) and 130 µM at ACE (from rabbit lungs) [8] (peptide 5 mg/mL, simulated gastric fluid (pepsin 0.40 mg/mL) 37 °C 90 min, then intestinal fluid (pancreatin 0.35 mg/mL, bile salt) pH 7.0, 37 °C 2 h, read-out: ACE inhibitory activity (IC50) after simulated gastrointestinal digestion). Further, the “stability of ACE inhibition and antioxidant activities during gastrointestinal digestion” value in [9] is recorded as “stable”.

Turning to “SGGEEAAAGP [oligopeptide identified in SAGH-D]”, in series [10], the Ferrous chelating capacity was 18.22 mg/g and 16.14 ± 0.43 g mg/g.

As for “SPAIPLP [literature antioxidant peptide from broad bean]”, the “antioxidant activity (literature)” value in series [6] (peptides from broad bean) is “excellent antioxidant activity”.

Consider “VIPTEPPHA [literature peptide from Faba beans]”, for which, in the series with ACE (from rabbit lungs) [5] (peptide from Faba beans), the IC50 was 260 µM. The “gastrointestinal stability (literature)” value in [7] (peptide from Faba beans) is reported as “good gastrointestinal stability”.

Consider “VSRRFIYYL [literature antioxidant peptide from broad bean]”, for which, in series [6] (peptides from broad bean), the “antioxidant activity (literature)” value is “excellent antioxidant activity”.

In the case of “YLSF [literature antioxidant peptide from apricot]”, the “antioxidant activity (literature)” value in series [6] (peptides from apricot) was “excellent antioxidant activity”.

Source of the values: paper PMC11901700, “A Sweet Almond Globulin Multifunctional Peptide: Identification, In Silico Screening, Restraint Mechanisms to Keap1 and ACE, and Antihypertensive and Ferrous Transport Efficiency” (Nutrients, 2025).
